Results on 57 molecules are retold here after patent US10717731B2, “Nitrogen-containing aromatic heterocyclic compound” (MITSUBISHI TANABE PHARMA CORPORATION, priority 2015, dated 2020).

This assay concerns the target T1, human CYP11B2 (Homo sapiens, UniProt P19099).
T1 construct: expressed in transfected cells; mitochondrial fraction
T1 sequence (P19099 25-503): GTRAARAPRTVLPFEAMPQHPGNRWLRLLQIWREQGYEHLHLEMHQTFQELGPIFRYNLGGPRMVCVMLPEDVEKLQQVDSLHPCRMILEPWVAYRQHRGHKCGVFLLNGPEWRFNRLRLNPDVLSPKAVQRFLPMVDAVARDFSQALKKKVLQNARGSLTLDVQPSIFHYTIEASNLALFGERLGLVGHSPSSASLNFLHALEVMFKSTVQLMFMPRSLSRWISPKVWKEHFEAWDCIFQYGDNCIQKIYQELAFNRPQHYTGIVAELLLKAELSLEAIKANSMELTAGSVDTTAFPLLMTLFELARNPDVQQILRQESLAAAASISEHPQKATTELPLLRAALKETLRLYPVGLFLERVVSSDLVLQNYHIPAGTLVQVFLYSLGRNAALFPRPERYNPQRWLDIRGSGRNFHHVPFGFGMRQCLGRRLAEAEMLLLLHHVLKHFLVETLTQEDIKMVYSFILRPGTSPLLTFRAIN
The assay can be described thus: Inhibitory effect on hCYP11B2: aldosterone production in mitochondrial fraction of V79 cells stably expressing human CYP11B2, HTRF. Format: biochemical. Particulars: 0.5 μmol/L deoxycorticosterone, 150 μmol/L NADPH, 1.5-2 hours at room temperature. As to the method: Experimental Example 1 (Inhibitory Effect on hCYP11B2)
The pcDNA3.1-human CYP11B2 plasmid was transfected into a Chinese hamster lung fibroblast V79 cell line to produce a cell line stably expressing human CYP11B2 gene.
The cells were cultured and grown in the Dulbecco's modified Eagle's/Ham's medium supplemented with 10% fetal bovine serum and 1% G418 disulfate solution under the environment of 37° C., 95% air, and 5% CO2, and the grown cells were harvested.
Then, the cells were fractionated to obtain mitochondria by reference to a method described in Chabre et al. JCE & M 85 (11) 4060-68, 2000. In particular, the cells suspended in a 5 mmol/L Tris-HCl buffer (pH 7.4) containing 250 mmol/L sucrose were homogenized in a Teflon (Registered Trademark) Potter Elvehjem homogenizer, and then the suspension was centrifuged (800×g, 15 min.). The supernatant was separated and again centrifuged (10000×g, 15 min.) to obtain a pellet (mitochondrial fraction).
The mitochondrial fraction diluted with a buffer containing 10 mmol/L KH2PO4, 10 mmol/L Tris, 20 mmol/L KCl, 25 mmol/L sucrose, 5 mmol/L MgCl2, and 0.05% bovine serum albumin was dispensed to a 96-well plate. 0.5 μmol/L Deoxycorticosterone, 150 μmol/L NADPH and a compound of each concentration were added to each well, and incubated for 1.5-2 hours at room temperature to produce aldosterone. An amount of the produced aldosterone in the incubated solution was determined by using HTRF (Homogeneous Time Resolved Fluorescence) method.
IC50 (nmol/L) was calculated by analyzing the aldosterone production inhibition rate (%) of each concentration of compounds by non-linear regression to a logistic curve.
`O=C(CN1CCN(c2cncc(-c3ccc(F)cc3)n2)CC1)N[C@H]1CC[C@@H](N2CCOCC2)CC1` [Example 32] displayed an IC50 of 9.6 nM. This counts as single-digit nanomolar.

As to `O=C1CN([C@H]2CC[C@@H](NC(=O)CN3CCN(c4cncc(-c5ccc(F)cc5)n4)CC3)CC2)CCN1` [Example 33], the IC50 worked out at 3.9 nM. This IC50 lies about 2.5-fold lower than the previous one.

On to `O=C(CN1CCN(c2cncc(-c3ccc(F)cc3)n2)CC1)NC1CCN(C2CCOCC2)CC1` [Example 34], for which the IC50 is 7 nM.

With `CS(=O)(=O)CCN1CCC(NC(=O)CN2CCN(c3cncc(-c4ccc(F)cc4)n3)CC2)CC1` [Example 35], the IC50 stood at 8.6 nM.

As for `O=C(CN1CCN(c2cncc(-c3ccc(F)cc3)n2)CC1)NC1CCN(c2ncccn2)CC1` [Example 36], it took 4.8 nM to reach half-maximal inhibition (IC50).

Molecule `CC(=O)N[C@H]1CC[C@@H](NC(=O)CN2CCN(c3cncc(-c4ccc(F)cc4)n3)CC2)CC1` [Example 37] gave an IC50 of 8.4 nM.

Turning to `CN(C)[C@H]1CC[C@@H](NC(=O)CN2CCN(c3cncc(-c4ccc(Cl)cc4)n3)CC2)CC1` [Example 38], the IC50 was found to be 8.7 nM.

With `CC(C)[C@@H](CO)NC(=O)CN1CCN(c2cncc(-c3ccc(Cl)cc3)n2)CC1` [Example 39], the IC50 came out at 4.3 nM.

On to `O=C(CN1CCN(c2cncc(-c3ccc(Cl)cc3)n2)CC1)NN1CCCC1` [Example 40], for which half-maximal inhibition (IC50) required 4 nM.

For `O=C(CN1CCN(c2cncc(-c3ccc(Cl)cc3)n2)CC1)NC1CCS(=O)(=O)CC1` [Example 41], the IC50 was 9.6 nM.

Molecule `CC(C)[C@@H](CO)NC(=O)CN1CCN(c2cncc(-c3ccc(C(F)(F)F)cc3)n2)C[C@H]1C` [Example 42] yielded an IC50 of 40 nM.

`C[C@@H]1CN(c2cncc(-c3ccc(C(F)(F)F)cc3)n2)CCN1CC(=O)N[C@H]1CC[C@](C)(O)CC1` [Example 43] registered an IC50 of 41 nM.

Molecule `C[C@@H]1CN(c2cncc(-c3ccc(C(F)(F)F)cc3)n2)CCN1CC(=O)N[C@@H](C)C(C)(C)O` [Example 44] came in with an IC50 of 56 nM.

Molecule `C[C@@H]1CN(c2cncc(-c3ccc(C(F)(F)F)cc3)n2)CCN1CC(=O)NCC(C)(C)O` [Example 45] showed an IC50 of 20 nM.

In turn, `C[C@@H]1CN(c2cncc(-c3ccc(C(F)(F)F)cc3)n2)CCN1CC(=O)N[C@H]1CCC[C@H]1O` [Example 46] returned an IC50 of 26 nM.

`Cc1ccccc1-c1cncc(N2CCN(CC(=O)NC3CCN(CCS(C)(=O)=O)CC3)CC2)n1` [Example 47] returned an IC50 of 22 nM.

As for `Cc1ccccc1-c1cncc(N2CCN(CC(=O)N[C@H]3CN4CCC3CC4)CC2)n1` [Example 48], it took 14 nM to reach half-maximal inhibition (IC50). Compared with the last molecule, the IC50 is about 1.6-fold lower.

Take `CC(C)NC(=O)CN1CCN(c2cncc(-c3ccc4c(cnn4C)c3)n2)CC1` [Example 50]: the IC50 is 48 nM.

In turn, `CC(C)NC(=O)CN1CCN(c2cncc(-c3ccc(C(F)(F)F)cc3)n2)C[C@H]1C` [Example 51] displayed an IC50 of 17 nM.

The molecule `CC1CCC(c2cncc(N3CCN(CC(=O)NC(C)C)CC3)n2)CC1` (stereo not drawn) [Example 52] showed an IC50 of 18 nM. This IC50 and that of the molecule before are within 1.5-fold of each other.

Molecule `CC(C)NC(=O)CN1CCN(c2cncc(-c3ccc(C#N)nc3)n2)CC1` [Example 53] displayed an IC50 of 25 nM.

In turn, `Cn1ncc2ccc(-c3cncc(N4CCN(CC(=O)NN5CCCC5)CC4)n3)cc21` [Example 54] gave an IC50 of 16 nM.

The molecule `CC(C)NC(=O)CN1CCN(c2cncc(-c3ccc4c(c3)CCO4)n2)CC1` [Example 55] showed an IC50 of 2.2 nM.

On to `CC(C)NC(=O)CN1CCN(c2cncc(-c3ccc4cn[nH]c4c3)n2)CC1` [Example 56], for which the IC50 turned out to be 38 nM. This IC50 is about 17-fold higher than that of the molecule before.

Regarding `Cc1ccccc1-c1cnnc(N2CCN(CC(=O)N[C@H]3CC[C@H](N4CCOCC4)CC3)CC2)c1` [Example 57], the IC50 stood at 16 nM.

Consider `Cc1ccc(-c2cnnc(N3CCN(CC(=O)N[C@@H]4CCOC[C@@H]4O)CC3)c2)cc1` [Example 58], for which inhibition was half-maximal at 20 nM (IC50).

Molecule `CNC(=O)CN1CCC(NC(=O)CN2CCN(c3cc(-c4ccc(C)cc4)cnn3)CC2)CC1` [Example 59] had an IC50 of 23 nM.

`Cc1ccc(-c2cnnc(N3CCN(CC(=O)NC[C@H]4CN(C)CCO4)CC3)c2)cc1` [Example 60]: 18 nM corresponded to half-maximal inhibition (IC50).

For `Cc1ccccc1-c1cnnc(N2CCN(CC(=O)Nc3cccnc3)CC2)c1` [Example 61], the IC50 came to 2.5 nM. This IC50 is about 7.2-fold lower than that of the molecule before.

`CS(=O)(=O)N1CCC(CNC(=O)CN2CCN(c3cc(-c4ccc(F)cc4)cnn3)CC2)CC1` [Example 62] gave an IC50 of 11 nM. Compared with the last molecule, the IC50 is about 4.4-fold higher.

Regarding `C[C@H](O)CNC(=O)CN1CCN(c2cc(-c3ccc(F)cc3)cnn2)CC1` [Example 63], the IC50 was found to be 8.8 nM.

Take `CC(C)(C)OC(=O)N1CCN(CCNC(=O)CN2CCN(c3cc(-c4ccc(F)cc4)cnn3)CC2)CC1` [Example 64]: the IC50 is 6.6 nM. The IC50 values of the last two molecules are within 1.5-fold of each other.

On to `COC1CCN(NC(=O)CN2CCN(c3cc(-c4ccc(Cl)cc4)cnn3)CC2)CC1` [Example 65], for which the IC50 was found to be 9.1 nM.

Molecule `CNC(=O)COC1CCC(NC(=O)CN2CCN(c3cc(-c4ccc(F)cc4)cnn3)CC2)CC1` (stereo not drawn) [Example 66] registered an IC50 of 9.6 nM.

Turning to `CN(C)[C@H]1CC[C@@H](NC(=O)CN2CCN(c3cc(-c4c(F)cccc4F)cnn3)CC2)CC1` [Example 67], inhibition was half-maximal at 41 nM (IC50).

On to `CNC(=O)COC1CCC(NC(=O)CN2CCN(c3cc(-c4ccc(Cl)cc4)cnn3)CC2)CC1` (stereo not drawn) [Example 68], for which inhibition was half-maximal at 8.3 nM (IC50).

As to `CC(=O)N[C@H]1CC[C@@H](NC(=O)CN2CCN(c3cc(-c4ccc(Cl)cc4)cnn3)CC2)CC1` [Example 69], it took 12 nM to reach half-maximal inhibition (IC50).

Turning to `O=C(CN1CCN(c2cc(-c3ccc(Cl)cc3)cnn2)CC1)NC1CCS(=O)(=O)CC1` [Example 70], the 50% inhibitory concentration (IC50) was 6 nM.

For the molecule `CS(=O)(=O)CCN1CCC(NC(=O)CN2CCN(c3cc(-c4ccc(F)cc4)cnn3)CC2)CC1` [Example 71], half-maximal inhibition (IC50) required 16 nM.

For the molecule `O=C(CN1CCN(c2cc(-c3ccc(F)cc3)cnn2)CC1)NC1CCC(N2CCOCC2)CC1` (stereo not drawn) [Example 72], the concentration for half-maximal inhibition (IC50) was 11 nM.

As for `CNC(=O)CN1CCC(NC(=O)CN2CCN(c3cc(-c4ccc(F)cc4)cnn3)CC2)CC1` [Example 73], 18 nM corresponded to half-maximal inhibition (IC50).

Consider `O=C(CN1CCN(c2cc(-c3ccc(F)cc3)cnn2)CC1)NCCN1CCS(=O)(=O)CC1` [Example 74], for which the IC50 stood at 19 nM.

`COc1ccccc1-c1cnnc(N2CCN(CC(=O)N[C@H]3CC[C@@H](N(C)C)CC3)CC2)c1` [Example 75] gave an IC50 of 41 nM.

With `COCc1ccc(-c2cnnc(N3CCN(CC(=O)N[C@H]4CC[C@@H](N(C)C)CC4)CC3)c2)cc1` [Example 76], half-maximal inhibition (IC50) was put at 103 nM.

For the molecule `Cc1ccccc1-c1cnnc(N2CCN(CC(=O)N[C@H]3CC[C@@H](N(C)C)CC3)CC2)c1` [Example 77], half-maximal inhibition (IC50) required 22 nM.

`O=C(CN1CCN(c2cc(-c3ccc(F)cc3)cnn2)CC1)NC1CCN(CCO)CC1` [Example 78] registered an IC50 of 28 nM. This IC50 and that of the molecule before are within 1.5-fold of each other.

Regarding `CN(C)[C@H]1CC[C@H](NC(=O)CN2CCN(c3cc(-c4ccc(F)cc4)cnn3)CC2)CC1` [Example 79], the IC50 is 21 nM.

As for `CN(C)[C@H]1CC[C@H](NC(=O)CN2CCN(c3cc(-c4ccc(Cl)cc4)cnn3)CC2)CC1` [Example 80], half-maximal inhibition (IC50) required 17 nM.

In turn, `CC1CC=C(c2cnnc(N3CCN(CC(=O)NC(C)C)CC3)c2)CC1` (stereo not drawn) [Example 81] showed an IC50 of 9.1 nM.

For `CC(C)NC(=O)CN1CCN(c2cc(-c3ccc4c(c3)CCO4)cnn2)CC1` [Example 82], the IC50 was found to be 14 nM.

`CC(C)NC(=O)CN1CCN(c2cc(-c3ccc(C#N)nc3)cnn2)CC1` [Example 83] gave an IC50 of 102 nM.

The molecule `CC1CCC(c2cnnc(N3CCN(CC(=O)NC(C)C)CC3)c2)CC1` (stereo not drawn) [Example 84] returned an IC50 of 32 nM.

Regarding `CC(C)NC(=O)CN1CCN(c2cc(-c3ccc(F)cc3)cnn2)CC1` [Example 85], inhibition was half-maximal at 7 nM (IC50).

In turn, `CC(C)NC(=O)CN1CCN(c2cc(-c3ccc4ccccc4c3)cnn2)CC1` [Example 86] yielded an IC50 of 8.4 nM.

Turning to `CC(C)NC(=O)CN1CCN(c2cc(-c3ccc(C(F)(F)F)cc3)cnn2)CC1` [Example 87], the IC50 is 18 nM.

`CC(C)(C)OC(=O)N1CC[C@@H](NC(=O)CN2CCN(c3cc(-c4ccc(F)cc4)cnn3)CC2)[C@H](F)C1` [Example 88]: the IC50 was determined as 7.8 nM. This IC50 lies about 2.3-fold lower than the previous one.

As to `Cc1c(-c2ccc(F)cc2)cnnc1N1CCN(CC(=O)NC(C)C)CC1` [Example 92], the IC50 was determined as 83 nM.

One may read the IC50 as the concentration needed to halve the response being measured. The low end stands for higher potency, the high end for lower potency.
